{"source": "patent US5776940A", "about": "“Phenylxanthine derivatives” (Glaxo Wellcome Inc., priority 1994, dated 1998)", "system": "C. parvum/LPS septic shock in mice", "test": "In vivo Septic Shock model C. parvum/LPS Shock", "parameters": "species or system mouse (male CD-1)", "conditions": "for % Survival After 48 hr / Alive/Total at 3 hr / Alive/Total at 48 hr: schedule -2,0 hr", "method": "3) In vivo Septic Shock model C. parvum/LPS Shock\nMale CD-1 mice, 25-30 g (Charles River: Raleigh, N.C.), are injected intravenously (i.v.) with 100 μg killed C. parvum (Coparvax; Burroughs Wellcome, RTP, NC). Nine or ten days later the mice are injected i.v. with 20 μg E. coli 026:B6 lipopolysaccharide (LPS; Difco Labs, Detroit, Mich.) in the presence of the analgesic butorphanol (150 μg per mouse). (E)-4-(1,3-bis(cyclohexylmethyl)-1, 2, 3, 6-tetrahydro-2, 6dioxo-9H-purin-8-yl)cinnamic acid was dissolved in ENCAPSIN (hydroxypropyl-β-cyclodextrin) for i.v. dosing before, at the same time as, and after the endotoxin. Control (untreated) animals go into shock within the first 90 min following LPS administration, and approximately 50% die within 3-5 hr. Mice are monitored for the first 7 hr and at 24 and 48 hr for survival.\n(E)-4-(1,3-bis(cyclohexylmethyl)-1, 2, 3, 6-tetrahydro-2, 6-dioxo-9H-purin-8-yl) cinnamic acid was administered at 0.001 to 80 mg/kg i.v. in the Septic Shock model described above.", "data": [{"smiles": "O=C(O)/C=C/c1ccc(-c2nc3c(=O)n(CC4CCCCC4)c(=O)n(CC4CCCCC4)c3[nH]2)cc1", "note": "[Example 1, (E)-4-[1,3 Bis(cyclohexylmethyl)-1,2,3,6-tetrahydro-2,6-dioxo-9H-purin-8-yl]cinnamic Acid]", "values": [{"measurement": "% Survival After 48 hr", "setting": "0.001 mg/kg i.v.", "result": 13, "unit": "%"}, {"measurement": "Alive/Total at 3 hr", "setting": "0.001 mg/kg i.v.", "result": "6/8"}, {"measurement": "Alive/Total at 48 hr", "setting": "0.001 mg/kg i.v.", "result": "1/8"}, {"measurement": "% Survival After 48 hr", "setting": "0.01 mg/kg i.v.", "result": 13, "unit": "%"}, {"measurement": "Alive/Total at 3 hr", "setting": "0.01 mg/kg i.v.", "result": "7/8"}, {"measurement": "Alive/Total at 48 hr", "setting": "0.01 mg/kg i.v.", "result": "1/8"}, {"measurement": "% Survival After 48 hr", "setting": "0.1 mg/kg i.v.", "result": 50, "unit": "%"}, {"measurement": "Alive/Total at 3 hr", "setting": "0.1 mg/kg i.v.", "result": "6/8"}, {"measurement": "Alive/Total at 48 hr", "setting": "0.1 mg/kg i.v.", "result": "4/8"}, {"measurement": "% Survival After 48 hr", "setting": "1.0 mg/kg i.v.", "result": 88, "unit": "%"}, {"measurement": "Alive/Total at 3 hr", "setting": "1.0 mg/kg i.v.", "result": "6/8"}, {"measurement": "Alive/Total at 48 hr", "setting": "1.0 mg/kg i.v.", "result": "7/8"}, {"measurement": "protection (decreasing mortality)", "setting": "0.001 to 80 mg/kg i.v., administered 2 hr before and at the time of LPS", "result": "greater than 50%"}, {"measurement": "% Survival After 48 hr", "setting": "5.0 mg/kg i.v.", "result": 75, "unit": "%"}, {"measurement": "Alive/Total at 3 hr", "setting": "5.0 mg/kg i.v.", "result": "7/8"}, {"measurement": "Alive/Total at 48 hr", "setting": "5.0 mg/kg i.v.", "result": "6/8"}, {"measurement": "% Survival After 48 hr", "setting": "10 mg/kg i.v.", "result": 75, "unit": "%"}, {"measurement": "Alive/Total at 3 hr", "setting": "10 mg/kg i.v.", "result": "8/8"}, {"measurement": "Alive/Total at 48 hr", "setting": "10 mg/kg i.v.", "result": "6/8"}, {"measurement": "% Survival After 48 hr", "setting": "20 mg/kg i.v.", "result": 75, "unit": "%"}, {"measurement": "Alive/Total at 3 hr", "setting": "20 mg/kg i.v.", "result": "8/8"}, {"measurement": "Alive/Total at 48 hr", "setting": "20 mg/kg i.v.", "result": "6/8"}, {"measurement": "% Survival After 48 hr", "setting": "40 mg/kg i.v.", "result": 75, "unit": "%"}, {"measurement": "Alive/Total at 3 hr", "setting": "40 mg/kg i.v.", "result": "7/8"}, {"measurement": "Alive/Total at 48 hr", "setting": "40 mg/kg i.v.", "result": "6/8"}, {"measurement": "% Survival After 48 hr", "setting": "60 mg/kg i.v.", "result": 75, "unit": "%"}, {"measurement": "Alive/Total at 3 hr", "setting": "60 mg/kg i.v.", "result": "7/8"}, {"measurement": "Alive/Total at 48 hr", "setting": "60 mg/kg i.v.", "result": "6/8"}, {"measurement": "% Survival After 48 hr", "setting": "80 mg/kg i.v.", "result": 63, "unit": "%"}, {"measurement": "Alive/Total at 3 hr", "setting": "80 mg/kg i.v.", "result": "7/8"}, {"measurement": "Alive/Total at 48 hr", "setting": "80 mg/kg i.v.", "result": "5/8"}]}]}
